Key:
hKv3.2 = biological target: T1, hKv3.2 (Homo sapiens, UniProt Q96PR1); experiment: Automated patch clamp (Patchliner) whole-cell electrophysiology, Kv3.2; type: cell-based; conditions: 10 μM compound, CHO-K1 cells stably expressing hKv3.2; for activation at 10 µM: % potentiation of peak current at −10 mV voltage step vs vehicle; for Kv3.2 Activity at 10 μM Voltage Shift (mV): voltage shift of the IV curve at V1/2
T1 construct: expressed in transfected cells
T1 sequence (Q96PR1 1-638): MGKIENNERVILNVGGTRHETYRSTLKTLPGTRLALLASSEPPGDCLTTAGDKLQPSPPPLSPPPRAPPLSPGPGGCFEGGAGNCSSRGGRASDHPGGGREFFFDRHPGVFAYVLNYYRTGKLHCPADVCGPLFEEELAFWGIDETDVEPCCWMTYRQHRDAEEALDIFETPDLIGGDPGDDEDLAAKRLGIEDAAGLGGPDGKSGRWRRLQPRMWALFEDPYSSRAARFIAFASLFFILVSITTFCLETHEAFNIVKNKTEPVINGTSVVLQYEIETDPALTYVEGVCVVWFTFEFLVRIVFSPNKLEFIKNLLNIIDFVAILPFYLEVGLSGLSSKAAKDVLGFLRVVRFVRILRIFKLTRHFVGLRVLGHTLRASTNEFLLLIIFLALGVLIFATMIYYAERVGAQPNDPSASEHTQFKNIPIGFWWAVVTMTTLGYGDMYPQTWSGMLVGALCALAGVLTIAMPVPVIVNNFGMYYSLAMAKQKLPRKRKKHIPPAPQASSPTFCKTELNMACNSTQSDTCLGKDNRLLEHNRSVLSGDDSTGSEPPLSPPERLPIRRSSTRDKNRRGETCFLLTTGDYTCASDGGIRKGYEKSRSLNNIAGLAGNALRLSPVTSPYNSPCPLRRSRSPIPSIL
Procedure: hKv3.1, hKv3.2, hKv3.3, and hKv3.4 were stably expressed in CHO-K1 (Chinese hamster ovary) cells and kept under constant antibiotic selection. For in vitro assays, cells were maintained in appropriate growth medium at 37° C. and 5% CO2 in a humidified incubator.
hKv3.X expressing cells were plated in T-25 flasks for 3-4 days at 37° C. (no selection antibiotic) prior to use and grown to 80% confluence. Cells were washed twice with PBS (calcium and magnesium free) and detached with a 5-minute treatment at 37° C. with 2-3 mls of Accutase®. Cells were collected, and flask was washed in CHO-SFM II media (Life Technologies Gibco), centrifuged for 2 minutes at ˜110×g and resuspended to obtain a single cell suspension of ˜2-3×10^6 cells/ml.
The intracellular solution contained the following (in mM): KCl 50, NaCl 10, KF 60, EGTA 20, HEPES 10, adjusted to pH 7.2 with KOH and an osmolarity of 285 mOsmol. Seal enhancer was purchased from Nanion (80 mM NaCl, 3 mM KCl, 10 mM MgCl2, 35 mM CaCl2), 10 mM HEPES, pH7.4, 298 mOsmol. The external solution contained (in mM): NaCl 140, KCl 4, CaCl2) 2, MgCl2 1, HEPES 10, Glucose 5, adjusted to pH7.4 and an osmolarity of 298 mOsmol.
All compounds were initially tested at 10 uM at a final DMSO concentration of 0.33%. Compounds were dissolved in dimethylsulfoxide (DMSO) at a stock concentration of 30 mM. The compound was further diluted 1:10 to give a stock concentration of 3 mM in DMSO. The final assay solution was diluted 1:300 in External solution to give a final concentration of 10 uM. For the DMSO Control Buffer 30 uL of DMSO was added to 10 mL buffer.
All electrophysiological recordings were performed at ambient temperature (21-23° C.) using automated patch clamp (Patchliner, Nanion Technologies GmbH) in the whole-cell configuration.
Cell membrane potentials were held at −80 mV, and currents were evoked by voltage steps (1000 ms duration) from −60 to +60 mV in 10 mV increments. This was performed first with vehicle (0.33% DMSO) and then with 10 uM compound, after a 3-minute incubation period. Data was taken from 4 cells per assay.
The recordings were analysed and selected using peak current amplitude (>100 pA at the −10 mV voltage step) in the absence of compound to eliminate unsuitable cells from analysis. Peak current amplitude was measured and recorded for each voltage step and data was normalised to the maximum current at +60 mV. The normalised Kv3.x currents following addition of the compound were then compared with the currents recorded prior to compound addition (vehicle control). Positive modulation was determined as % potentiation at the voltage step of −10 mV=[current (cmpd)/current (veh)]*100−100. % potentiation ≥50% was considered acceptable. In addition, voltage shift of the IV curve at V1/2 was measured. V1/2 of ≥−5 mV was also considered acceptable. IV curves were plotted in GraphPad Prism (software version 6.0) and fitted with a Boltzmann equation, where V1/2 is the voltage at half-maximal activation.

hKv3.1 = biological target: T2, hKv3.1 (Homo sapiens, UniProt P48547); experiment: Automated patch clamp (Patchliner) whole-cell electrophysiology, Kv3.1; type: cell-based; conditions: 10 μM compound, CHO-K1 cells stably expressing hKv3.1; for Kv3.1 Activity at 10 μM Potentiation (%): % potentiation of peak current at −10 mV voltage step vs vehicle; for Kv3.1 Activity at 10 μM Voltage Shift (mV): voltage shift of the IV curve at V1/2
T2 construct: expressed in transfected cells
T2 sequence (P48547 1-511): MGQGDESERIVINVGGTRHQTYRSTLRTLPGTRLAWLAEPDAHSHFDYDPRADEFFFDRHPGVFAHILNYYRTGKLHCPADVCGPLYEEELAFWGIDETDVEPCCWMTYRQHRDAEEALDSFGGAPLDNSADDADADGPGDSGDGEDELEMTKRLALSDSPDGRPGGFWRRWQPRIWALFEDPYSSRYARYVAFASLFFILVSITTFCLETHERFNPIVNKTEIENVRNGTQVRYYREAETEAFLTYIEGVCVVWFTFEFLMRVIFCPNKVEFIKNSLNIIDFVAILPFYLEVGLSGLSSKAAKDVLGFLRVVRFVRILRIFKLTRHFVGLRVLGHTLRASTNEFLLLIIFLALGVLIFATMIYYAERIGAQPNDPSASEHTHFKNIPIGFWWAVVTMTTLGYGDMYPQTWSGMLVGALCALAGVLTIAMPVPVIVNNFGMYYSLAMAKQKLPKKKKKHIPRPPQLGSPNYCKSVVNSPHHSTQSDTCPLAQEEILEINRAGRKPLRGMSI
Procedure, shortened: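 CHO-K1 cells stably expressing hKv3.x recorded by whole-cell automated patch clamp at 21-23 °C, held at −80 mV with 1000 ms steps from −60 to +60 mV, vehicle then 10 uM compound (0.33% DMSO, 3-min incubation), 4 cells. Currents normalized to +60 mV; % potentiation at −10 mV and Boltzmann V1/2 shift reported.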

**Q.** `O=C1NC2(CCCCC2)C(=O)N1c1ccnc(Oc2ccc3c(c2)OC(F)(F)O3)c1F` [Example 93, 3-[2-[(2,2-difluoro-1,3-benzodioxol-5-yl)oxy]-3-fluoro-4-pyridyl]-1,3-diazaspiro[4.5]decane-2,4-dione] was tested. Which activation at 10 µM (hKv3.2) did it give?
**A.** 71%

**Q.** What about the “Kv3.2 Activity at 10 μM Voltage Shift (mV)” value (hKv3.2) of the same compound?
**A.** −6.55 mV

**Q.** And the “Kv3.1 Activity at 10 μM Potentiation (%)” value (hKv3.1)?
**A.** 142%

**Q.** What about the “Kv3.1 Activity at 10 μM Voltage Shift (mV)” value (hKv3.1) of the same compound?
**A.** −8.79 mV

**Q.** For `O=C1NC2(CCCC2)C(=O)N1c1ccnc(Oc2ccc3c(c2)OC(F)(F)O3)c1F` [Example 92, 3-[2-[(2,2-difluoro-1,3-benzodioxol-5-yl)oxy]-3-fluoro-4-pyridyl]-1,3-diazaspiro[4.4]nonane-2,4-dione], which activation at 10 µM (hKv3.2) is on record?
**A.** 93%

**Q.** And the “Kv3.2 Activity at 10 μM Voltage Shift (mV)” value (hKv3.2)?
**A.** −5.37 mV

**Q.** What about the “Kv3.1 Activity at 10 μM Potentiation (%)” value (hKv3.1) of the same compound?
**A.** 227%

**Q.** What about the “Kv3.1 Activity at 10 μM Voltage Shift (mV)” value (hKv3.1) of the same compound?
**A.** −7.49 mV

Source: patent publication US12090146B2, “Substituted-pyridinyl compounds and uses thereof” (Bionomics Limited, priority 2018, dated 2024)
